Data as given in patent publication US20240287172A1, “PROTEIN BINDERS TO IRHOM2 EPITOPES” (SCIRHOM GMBH, priority 2019, published 2024).

Key:
[1] = test system: PMA-induced release of endogenous IL-6R from human THP-1 monocytic cells; assay: ELISA-based IL-6R release assay, PMA-induced, THP-1 cells; type: cell-based; settings: PMA 25 ng/ml, 1 hour, recombinant murine antibodies and IgG at 1 μg/ml, Batimastat at 10 μM
Protocol: (§1) In brief, on day 1, Nunc black MaxiSorp® 96-well plates (Thermo Fisher Scientific, USA) were coated for 7 hours with 100 μl per well of mouse anti-human IL-6R capture antibody (provided as part of the DuoSet ELISA kit) at 2 μg/ml TBS at room temperature. Capture antibody solution was removed and MaxiSorp® plates were blocked with 300 μl per well of TBS, 1% BSA at room temperature for 1.5 hours. Meanwhile, 40,000 THP-1 (American Type Culture Collection, USA) cells in 80 μl of normal growth medium were seeded in each well of Greiner CELLSTAR V-bottom 96-well plates (Thermo Fisher Scientific, USA) and pre-incubated with 20 μl per well of standard growth medium supplemented with Batimastat (BB94, Abcam, UK) at 50 μM as positive control (for a final concentration of 10 μM in the resulting 100 μl sample volume), mouse IgG antibody (Thermo Fisher Scientific, USA) at 5 μg/ml as isotype control (for a final concentration of 1 μg/ml in the resulting 100 μl sample volume) or antibodies of the invention at 5 μg/ml (for a final concentration of 1 μg/ml in the resulting 100 μl sample volume) at 37° C., 5% CO2 for 30 minutes. […] Using an infinite M1000 (Tecan Group, Switzerland) microplate reader, the fluorescence of each well was collected at an excitation wavelength of 435 nm and an emission wavelength of 555 nm.

[2] = test system: LPS-induced release of endogenous TNFα from PBMCs from healthy donors; assay: ELISA-based TNFα release assay, LPS-induced, PBMCs from healthy donors; type: cell-based; settings: Homo sapiens, PBMC; LPS 50 ng/ml, 2 hours; recombinant murine antibodies and IgG at 1 μg/ml; Batimastat at 10 μM
Protocol: as §1, with “coated overnight” for “coated for 7 hours”, “anti-human TNFα” for “anti-human IL-6R”, “at 4” for “at 2”, “at 4° C. On day 2, the capture” for “at room temperature. Capture”, “for 3” for “for 1.5”, “Meanwhile, 20,000 PBMC from healthy donors (STEMCELL Technologies, Canada)” for “Meanwhile, 40,000 THP-1 (American Type Culture Collection, USA)”

CNC(=O)[C@H](Cc1ccccc1)NC(=O)[C@H](CC(C)C)[C@H](CSc1cccs1)C(=O)NO [Batimastat]
inhibition at 10 µM [1]: 88.6% | inhibition at 10 µM [2]: 99.6%
